Measured values reported in patent US20250235453A1, “TRIAZOLOPYRIDAZINE COMPOUNDS USEFUL AS RAC1 INHIBITORS” (Revere Pharmaceuticals, priority 2021, published 2025).

Molecular target: T1, Rac1 (Homo sapiens, UniProt P63000)
T1 construct: His (N)
Test: Rac Activation AlphaScreen Assay (Rac1 AS)
Assay type: biochemical
Details: Rac1 AS assay, dose leading to 50% disruption of complex; read-out: IC50
Experimental: The IC50 values reported in Tables 1-6 were obtained from the Rae Activation AlphaScreen Assay (Rac1 AS) assay described in subsection 2 under the section entitled “In Vitro Assays”. “†” represents an IC50 of greater than 100 uM; “††” represents an IC50 of greater than 10 uM and less than 50 uM; and “†††” represents an IC50 of less than 10 uM. “POC” means percent of control. […] Lower POC values reflect greater inhibition. “NT” means not tested.
2. Rac Activation AlphaScreen Assay (Rac1 AS)
AlphaScreen® assays were performed in 96-well microplates in a final reaction volume of 60 μL. Recombinant His-Rac1, recombinant GST-PBD (PAK Binding Domain), donor and acceptor beads (PerkinElmer), and inhibitors were incubated in exchange buffer (20 mM Tris pH 7.5, 50 mM NaCl, 1 mM MgCl2, 1 mM EDTA, 500 nM GTPyS (guanosine 5′-[Y-thio]triphosphate)) at 37° C. Readings were performed on a Tecan M1000 pro microplate reader after 1 hour. Data was analyzed using the GraphPad Prism software (GraphPad Software, Inc.), and IC50 (dose leading to 50% disruption of complex) was calculated from the dose-response curves.

IC50 [µM] | Structure (SMILES)
> 100 | O=C(Cc1ccc(Cl)cc1)Nc1ccc(-c2ccc3nnc(-c4ccncc4)n3n2)cc1 [Compound 7]
> 100 | O=C(Cc1cccc(F)c1)Nc1ccc(-c2ccc3nnc(-c4ccncc4)n3n2)cc1 [Compound 8]
10 to 50 | Cc1ccc(CC(=O)Nc2ccc(-c3ccc4nnc(-c5ccncc5)n4n3)cc2)cc1C [Compound 9]
< 10 | O=C(Cc1cccc(Cl)c1)Nc1ccc(-c2ccc3nnc(-c4ccncc4)n3n2)cc1 [Compound 10]
10 to 50 | Cc1cc(C)cc(CC(=O)Nc2ccc(-c3ccc4nnc(-c5ccncc5)n4n3)cc2)c1 [Compound 11]
< 10 | O=C(Cc1ccc(F)cc1)Nc1ccc(-c2ccc3nnc(-c4ccncc4)n3n2)cc1 [Compound 12]
10 to 50 | Cc1ccccc1CC(=O)Nc1ccc(-c2ccc3nnc(-c4ccncc4)n3n2)cc1 [Compound 13]
< 10 | O=C(Cc1cccc2ccccc12)Nc1ccc(-c2ccc3nnc(-c4ccncc4)n3n2)cc1 [Compound 15]
10 to 50 | O=C(Cc1ccc2ccccc2c1)Nc1ccc(-c2ccc3nnc(-c4ccncc4)n3n2)cc1 [Compound 16]
10 to 50 | O=C(Cc1cccc([N+](=O)[O-])c1)Nc1ccc(-c2ccc3nnc(-c4ccncc4)n3n2)cc1 [Compound 17]
10 to 50 | O=C(Cc1cccs1)Nc1ccc(-c2ccc3nnc(-c4cccnc4)n3n2)cc1 [Compound 18]
< 10 | O=C(Cc1cccc2ccccc12)Nc1ccc(-c2ccc3nnc(-c4ccccn4)n3n2)cc1 [Compound 19]
> 100 | O=C(Cc1ccc2ccccc2n1)Nc1ccc(-c2ccc3nnc(-c4ccccn4)n3n2)cc1 [Compound 20]
10 to 50 | O=C(Cc1ccc(Cl)nc1)Nc1ccc(-c2ccc3nnc(-c4ccccn4)n3n2)cc1 [Compound 21]
< 10 | O=C(Cc1cccnc1Cl)Nc1ccc(-c2ccc3nnc(-c4ccccn4)n3n2)cc1 [Compound 22]
< 10 | O=C(Cc1cccc(F)c1)Nc1ccc(-c2ccc3nnc(-c4cccs4)n3n2)cc1 [Compound 24]
10 to 50 | COc1cccc(CC(=O)Nc2ccc(-c3ccc4nnc(-c5cccs5)n4n3)cc2)c1 [Compound 25]
< 10 | O=C(Cc1ccc(F)cc1)Nc1ccc(-c2ccc3nnc(-c4cccs4)n3n2)cc1 [Compound 26]
< 10 | O=C(Cc1ccc(F)cc1F)Nc1ccc(-c2ccc3nnc(-c4cccs4)n3n2)cc1 [Compound 27]
< 10 | O=C(Cc1ccccc1Cl)Nc1ccc(-c2ccc3nnc(-c4cccs4)n3n2)cc1 [Compound 28]

IC50 [µM] | Structure (SMILES)
< 10 | O=C(Cc1ccccc1)Nc1ccc(-c2ccc3nnc(-c4ccccn4)n3n2)cc1 [Compound 30]
> 100 | Cc1nnc2ccc(-c3ccc(NC(=O)Cc4ccco4)cc3)nn12 [Compound 31]
< 10 | O=S(=O)(Cc1ccccc1)Nc1ccc(-c2ccc3nnc(-c4ccccn4)n3n2)cc1 [Compound 33]
< 10 | O=C(Cc1ccccc1Cl)Nc1cccc(-c2ccc3nnc(-c4cccnc4)n3n2)c1 [Compound 44]
< 10 | O=C(Cc1c[nH]c2ccccc12)Nc1cccc(-c2ccc3nnc(-c4cccnc4)n3n2)c1 [Compound 45]
< 10 | COc1cccc(CC(=O)Nc2cccc(-c3ccc4nnc(-c5cccnc5)n4n3)c2)c1 [Compound 46]
10 to 50 | O=C(Nc1cccc(-c2ccc3nnc(-c4cccnc4)n3n2)c1)c1ccc2ccccc2c1 [Compound 49]
< 10 | O=C(Cc1cccs1)Nc1cccc(-c2ccc3nnc(-c4cccnc4)n3n2)c1 [Compound 51]
< 10 | O=C(Cc1ccc(Cl)cc1)Nc1cccc(-c2ccc3nnc(-c4cccnc4)n3n2)c1 [Compound 52]
< 10 | O=S(=O)(Cc1ccc(F)cc1F)Nc1cccc(-c2ccc3nnc(-c4cccnc4)n3n2)c1 [Compound 56]
< 10 | O=S(=O)(Cc1ccc2ccccc2c1)Nc1cccc(-c2ccc3nnc(-c4cccnc4)n3n2)c1 [Compound 57]
< 10 | CCc1ccc(CS(=O)(=O)Nc2cccc(-c3ccc4nnc(-c5cccnc5)n4n3)c2)s1 [Compound 59]
< 10 | Cc1ccc(CS(=O)(=O)Nc2cccc(-c3ccc4nnc(-c5cccnc5)n4n3)c2)s1 [Compound 60]
< 10 | O=S(=O)(Cc1ccccc1F)Nc1cccc(-c2ccc3nnc(-c4cccnc4)n3n2)c1 [Compound 62]
< 10 | O=S(=O)(Cc1cccc(F)c1)Nc1cccc(-c2ccc3nnc(-c4cccnc4)n3n2)c1 [Compound 63]
< 10 | Cn1cc(CC(=O)Nc2cccc(-c3ccc4nnc(-c5cccnc5)n4n3)c2)c2ccccc21 [Compound 74]
< 10 | COc1cccc(C(=O)Nc2cccc(-c3ccc4nnc(-c5ccc(C)o5)n4n3)c2)c1 [Compound 79]
< 10 | Cc1ccc(-c2nnc3ccc(-c4cccc(NC(=O)c5ccc(F)cc5)c4)nn23)o1 [Compound 80, 4-fluoro-N-(3-(3-(5-methylfuran-2-yl)-[1,2,4]triazolo[4,3-b]pyridazin-6-yl)phenyl)benzamide]
< 10 | Cc1ccc(-c2nnc3ccc(-c4cccc(NC(=O)c5ccc(F)c(Cl)c5)c4)nn23)o1 [Compound 81, 3-chloro-4-fluoro-N-(3-(3-(5-methylfuran-2-yl)-[1,2,4]triazolo[4,3-b]pyridazin-6-yl)phenyl)benzamide]
< 10 | Cc1ccc(-c2nnc3ccc(-c4cccc(NC(=O)c5cccc(Cl)c5)c4)nn23)o1 [Compound 82, 3-chloro-N-(3-(3-(5-methylfuran-2-yl)-[1,2,4]triazolo[4,3-b]pyridazin-6-yl)phenyl)benzamide]

IC50 [µM] | Structure (SMILES)
< 10 | Cc1ccc(-c2nnc3ccc(-c4cccc(NC(=O)c5cccc(Br)c5)c4)nn23)o1 [Compound 83]
< 10 | Cc1ccc(-c2nnc3ccc(-c4cccc(NC(=O)c5cccc(F)c5)c4)nn23)o1 [Compound 84]
< 10 | Cc1ccc(-c2nnc3ccc(-c4cccc(NC(=O)c5ccc(F)c(F)c5)c4)nn23)o1 [Compound 85]
< 10 | CSc1cc(C(=O)Nc2cccc(-c3ccc4nnc(-c5ccc(C)o5)n4n3)c2)ccc1F [Compound 86]
< 10 | CCSc1cccc(C(=O)Nc2cccc(-c3ccc4nnc(-c5ccc(C)o5)n4n3)c2)c1 [Compound 87]
< 10 | Cc1ccc(-c2nnc3ccc(-c4cccc(NC(=O)c5cccc(SC(C)C)c5)c4)nn23)o1 [Compound 88, 3-(isopropylthio)-N-(3-(3-(5-methylfuran-2-yl)-[1,2,4]triazolo[4,3-b]pyridazin-6-yl)phenyl)benzamide]
< 10 | Cc1cccc(C(=O)Nc2cccc(-c3ccc4nnc(-c5ccc(C)o5)n4n3)c2)c1 [Compound 89]
< 10 | CCc1cccc(C(=O)Nc2cccc(-c3ccc4nnc(-c5ccc(C)o5)n4n3)c2)c1 [Compound 90, 3-ethyl-N-(3-(3-(5-methylfuran-2-yl)-[1,2,4]triazolo[4,3-b]pyridazin-6-yl)phenyl)benzamide]
< 10 | Cc1ccc(-c2nnc3ccc(-c4cccc(NC(=O)c5ccc(F)c(SC(C)C)c5)c4)nn23)o1 [Compound 91]
< 10 | Cc1ccc(-c2nnc3ccc(-c4cccc(NC(=O)c5ccc(F)c(C)c5)c4)nn23)o1 [Compound 92]
< 10 | CCc1cc(C(=O)Nc2cccc(-c3ccc4nnc(-c5ccc(C)o5)n4n3)c2)ccc1F [Compound 93, 3-ethyl-4-fluoro-N-(3-(3-(5-methylfuran-2-yl)-[1,2,4]triazolo[4,3-b]pyridazin-6-yl)phenyl)benzamide]
< 10 | Cc1ccc(-c2nnc3ccc(-c4cccc(NC(=O)c5ccc(F)c(Br)c5)c4)nn23)o1 [Compound 94]
< 10 | COc1cccc(C(=O)Nc2cccc(-c3ccc4nnc(-c5cncs5)n4n3)c2)c1 [Compound 98]
< 10 | O=C(Nc1cccc(-c2ccc3nnc(-c4cncs4)n3n2)c1)c1ccc(F)cc1 [Compound 99, 4-fluoro-N-(3-(3-(thiazol-5-yl)-[1,2,4]triazolo[4,3-b]pyridazin-6-yl)phenyl)benzamide]
< 10 | Cc1ccc(-c2nnc3ccc(-c4cccc(NS(=O)(=O)Cc5ccc(F)cc5F)c4)nn23)o1 [Compound 106]
< 10 | COc1ccc(CS(=O)(=O)Nc2cccc(-c3ccc4nnc(-c5cccnc5)n4n3)c2)cc1 [Compound 107]
< 10 | COc1ccc(CS(=O)(=O)Nc2cccc(-c3ccc4nnc(-c5cccnc5)n4n3)c2)c(OC)c1 [Compound 108]
< 10 | Cc1ccc(-c2nnc3ccc(-c4cccc(NC(=O)c5cnco5)c4)nn23)o1 [Compound 109]
< 10 | Cc1ccc(-c2nnc3ccc(-c4cccc(NC(=O)c5ccc(F)c(CCC(C)C)c5)c4)nn23)o1 [Compound 110]
< 10 | Cc1ccc(-c2nnc3ccc(-c4cccc(NC(=O)c5cccc(SC(C)(C)C)c5)c4)nn23)o1 [Compound 111]
